These results are taken from publication PMC10424179, “Disrupting Kaposi’s Sarcoma-Associated Herpesvirus (KSHV) Latent Replication with a Small Molecule Inhibitor” (Journal of Medicinal Chemistry, 2023).

A value given as a limit tells only on which side of the number the result lay.

The nature of data set [1]: Metabolic stability in mouse liver S9 fraction. The format is in vitro ADME. To be noted: pooled liver S9 fraction, mouse liver S9, 1 μM compound. The protocol:
(§1) The next step was an in vitro ADMET profiling of the best seven compounds so far: 9, 11, 14, 19, 20, 21, and 27. The compounds were tested for their kinetic solubility (1% DMSO in PBS, pH 7.4), lipophilicity (chromatographic Log D7.4 value), cellular permeability (using Caco-2 cells), and metabolic stability (using mouse and human liver S9 fractions) (see Table 3). […]
(§2) 1.7 Metabolic Stability in Liver S9 Fractions
(§3) For the evaluation of combined phase I and phase II metabolic stability, the compound (1 μM) was incubated with 1 mg/mL pooled mouse liver S9 fraction (Xenotech, Kansas City, USA) or human liver S9 fraction (Corning, USA), 2 mM NADPH, 1 mM UDPGA, 10 mM MgCl 2, 5 mM GSH and 0.1 mM PAPS at 37 °C for 240 min. The metabolic stability of testosterone, verapamil and ketoconazole were determined in parallel to confirm the enzymatic activity of mouse S9 fractions, for human S9 testosterone, diclofenac and propranolol were used. The incubation was stopped after defined time points by precipitation of aliquots of S9 enzymes with 2 volumes of cold acetonitrile containing internal standard (150 nM diphenhydramine). Samples were stored on ice until the end of the incubation and precipitated protein was removed by centrifugation (15 min, 4 °C, 4,000 g). Concentration of the remaining test compound at the different time points was analyzed by HPLC-MS/MS (TSQ Quantum Access MAX, Thermo Fisher, Dreieich, Germany) and used to determine half -life (t1/2). Values are means of three

Another data set in a line: Kinetic solubility. The format is physicochemical. To be noted: PBS with 1% DMSO; 1% DMSO in PBS, pH 7.4. On the procedure: (§4) The next step was an in vitro ADMET profiling of the best seven compounds so far: 9, 11, 14, 19, 20, 21, and 27. The compounds were tested for their kinetic solubility (1% DMSO in PBS, pH 7.4), lipophilicity (chromatographic Log D7.4 value), cellular permeability (using Caco-2 cells), and metabolic stability (using mouse and human liver S9 fractions) (see Table 3).
The desired compounds were sequentially diluted in DMSO in a 96-well plate. 1.5 µL of each well were transferred into another 96-well plate and mixed with 148.5 µL of PBS. Plates were shaken for 5 min at 600 rpm at room temperature (r.t.), and the absorbance at 620 nm was measured. Absorbance values were normalized by blank subtraction and plotted using GraphPad Prism 8.4.2 (GraphPad Software, San Diego, CA, USA). Solubility (S) was determined based on the First X value of AUC function using a threshold of 0.005. […]

The nature of the next data set: Caco-2 cell permeability. The format is in vitro ADME. To be noted: human, pH 7.4, Caco-2 monolayer, apical to basolateral. On the procedure: as §4
MTT Assay: Viability of HEK293 cells ~48 hours after treatment […]
Fig S4: MTT assay for compounds 11, 14, 19, 20 and 21 using HEK293 cells. Values are means of […]
Permeability of the compounds was assessed using Caco2 monolayers grown on Transwell® (3460 Costar, Corning). In brief, cells were seeded 60.000 cells/well in 12-well Transwell plates in DMEM medium supplemented with 10% FCS and 1% NEAA. Cells were grown for 7 to 9 days with medium replacement every other day until they reached a tight monolayer. Tightness was defined as transepithelial resistance (TEER) values >300 Ω/cm² (measured using an EVOM Volt-Ohmmeter, World Precision Instruments). At the day of permeability as say, the compound stock solutions in DMSO were diluted to 10µM in Krebs -Ringer-buffer (KRB, pH 7.4). Cells treated with KRB only served as control. Monolayer was washed two times with prewarmed KRB and incubated with 500 µl sample on the apical compartment. Samples from the basolateral side were drawn at t = 0, 15, 30, 60, 120, 180 and 300 min and replaced with fresh buffer. The plates were incubated for 5 h in a cell culture incubator with lateral shaking (200 rpm). TEER values were measured again at the end of the permeability test. Compound concentration was determined with HPLC-ESI-MS/MS in SRM mode and calculated for the cumulative transport. Values are means of three replicates.
Background: Caco-2 cells form a polarised layer with tight junctions and transporters.

Data set [2] can be described thus: Metabolic stability in human liver S9 fraction. The format is in vitro ADME. The conditions noted are these: human liver S9, 1 μM compound. On the procedure: as §1, §2, §3
For data set [3], the target named is T1, oligomerization-deficient mutant of a LANA C-terminal protein fragment (aa 1008–1146) (Human herpesvirus 8 (Kaposi's sarcoma-associated herpesvirus), UniProt Q76SB0).
T1 sequence (Q76SB0 1008-1146): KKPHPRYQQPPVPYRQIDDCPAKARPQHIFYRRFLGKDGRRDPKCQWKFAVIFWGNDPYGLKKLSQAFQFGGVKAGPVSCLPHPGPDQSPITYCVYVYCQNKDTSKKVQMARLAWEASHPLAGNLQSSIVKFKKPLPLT
The data set can be described thus: Microscale thermophoresis (MST) binding assay. Details: species or system Kaposi's sarcoma-associated herpesvirus (KSHV). To be noted: read-out: KD value (MST); LANA aa 1008–1146 mutant; means of at least three replicates. From the text:
In these assays, an oligomerization-deficient mutant of a LANA C-terminal protein fragment (aa 1008–1146) and an oligonucleotide representing LANA-binding site (LBS) 1 were used, which are convenient to use and handle for the described biophysical methods, while maintaining the essential DNA-binding interface.[25]
Equation y = A2 + (A1-A2)/(1 + (x/x0)^p)
1.3 Microscale Thermophoresis (MST) Assay
Microscale Thermophoresis Assay was done as mentioned in a previous publication. 2

Another data set can be described thus: Chromatographic LogD7.4. The format is physicochemical. To be noted: reversed-phase HPLC, NUCLEODUR C18 Pyramid column; pH 7.4, HPLC-MS based; read-out: Chrom. LogD7.4. The protocol: as §1
LogD7.4 was analyzed using an HPLC−MS based method. The retention time of 12 compounds with known LogD7.4 was determined and plotted toward their LogD7.4. Linear regression was used to determine the LogD7.4 of unknown compounds. Analysis was performed using a Dionex Ultimate 3000 HPLC system coupled to a TSQ Quantum Access MAX (Thermo Fisher, Dreieich, Germany) with the following conditions: EC150/2 NUCLEODUR C18 Pyramid column, 5 μM (Macherey Nagel, Düren, Germany); eluent A: 50 mM NH4OAc pH 7.4, eluent B: acetonitrile, and flow: 0.6 mL/min. The gradient was set to 0−100% B from 0 to 2.5 min, […]
are means of two replicates. […]

One may read the kinetic solubility as the concentration staying in solution when a stock, usually in DMSO, is diluted into the medium. In general, Papp A→B refers to the apparent permeability from the apical to the basolateral side of a cell layer. Broadly, the Kd is the constant that tells how readily two partners part at equilibrium. With `COc1ccc(-c2cc(C)c(-n3cc(-c4ccc(C(=O)O)cc4)nn3)cn2)c(Cl)c1` [Compound 20], the microsomal CLint at 1 µM in data set [1] (read-out: MetStab Mouse Liver S9 Clint) and in data set [2] (read-out: MetStab Human Liver S9 Clint) was less than 5.8 µL/min/mg throughout. For the same compound, the half-life at 1 µM in data set [1] (read-out: MetStab Mouse Liver S9 t1/2) and in data set [2] (read-out: MetStab Human Liver S9 t1/2) was greater than 2 h throughout. Besides, in “Kinetic solubility”, the kinetic solubility at 5 min is greater than 200 µM. Further, in “Caco-2 cell permeability”, the apparent permeability from apical to basolateral (Papp A→B) at 5 h, 10 µM was found to be 10.3 ± 2.3 ×10⁻⁶ cm/s. In data set [3], the Kd was found to be 14.1 ± 3.9 µM. Also, the chromatographic logD in “Chromatographic LogD7.4” is 0.75.
